# In ChEMBL document CHEMBL4834400 (J Med Chem, 2021):
# Columns and labels:
# [1] = Drug concentration in Wistar Han rat plasma at 100 mg/kg, po measured at 6 hrs by HPLC-MS/MS
# [2] = Drug concentration in Wistar Han rat brain at 100 mg/kg, po measured at 6 hrs by HPLC-MS/MS
# [3] = Drug concentration in Wistar Han rat plasma at 100 mg/kg, po measured at 2 hrs by HPLC-MS/MS
# [4] = Ratio of drug concentration in brain to plasma in Wistar Han rat at 100 mg/kg, po measured at 6 hrs by HPLC-MS/MS
# [5] = Ratio of drug concentration in brain to plasma in Wistar Han rat at 100 mg/kg, po measured at 0.37 hrs by HPLC-MS/MS
# [6] = Drug concentration in Wistar Han rat brain at 100 mg/kg, po measured at 0.37 hrs by HPLC-MS/MS
# [7] = Ratio of drug concentration in brain to plasma in Wistar Han rat at 100 mg/kg, po measured at 2 hrs by HPLC-MS/MS
# [8] = Drug concentration in Wistar Han rat plasma at 100 mg/kg, po measured at 0.37 hrs by HPLC-MS/MS
# [9] = Drug concentration in Wistar Han rat brain at 100 mg/kg, po measured at 2 hrs by HPLC-MS/MS
# [10] = Half life in Sprague-Dawley rat at 10 mg/kg, po; conditions: in vivo
# [11] = Drug concentration in Sprague-Dawley rat at 5 mg/kg, iv measured at 0 hrs; conditions: in vivo
# in vivo [12] = conditions: Sprague-Dawley, rat, plasma, po, 10 mg/kg
# [13] = Clearance in Sprague-Dawley rat at 5 mg/kg, iv; conditions: in vivo
# in vivo [14] = conditions: Sprague-Dawley, rat, po, 10 mg/kg
# [15] = Half life in Sprague-Dawley rat at 5 mg/kg, iv; conditions: in vivo
# in vivo [16] = conditions: Sprague-Dawley, rat, plasma, po, 10 mg/kg; remark: listed apart in the source
# [17] = Volume of distribution at steady state in Sprague-Dawley rat at 5 mg/kg, iv; conditions: in vivo
concentration at 6 h [1],concentration at 6 h [2],concentration at 2 h [3],Kp at 6 h [4],Kp at […] [5],concentration at […] [6],Kp at 2 h [7],concentration at […] [8],concentration at 2 h [9],half-life [10],concentration at 0 h [11],AUC(0-inf) (in vivo [12]),clearance [13],bioavailability (in vivo [14]),half-life [15],Cmax at 24 h (in vivo [16]),Vd [17],Structure (SMILES)
450 ng/mL,1210 ng/g,1230 ng/mL,2.73,3.19,13800 ng/g,2.73,4200 ng/mL,3200 ng/g,–,–,–,–,–,–,–,–,COc1ccc2cccc(CCNC(C)=O)c2c1 [AGOMELATINE]
–,–,–,–,–,–,–,–,–,31.8 min,935 ng/mL,2490 ng·h/mL,35.2 mL/min/kg,53.5%,19.8 min,2790 ng/mL,1.05 L/kg,COc1ccc2[nH]cc(CCNC(C)=O)c2c1 [MELATONIN]
1150 ng/mL,1190 ng/g,3450 ng/mL,1.02,0.91,2850 ng/g,0.86,3160 ng/mL,3030 ng/g,–,–,–,–,–,–,–,–,CCC(=O)NCC[C@@H]1CCc2ccc3c(c21)CCO3 [RAMELTEON]
